Columns and labels:
Assay type in all cases: cell-based
[1] = test system: SARS-CoV-2 Wuhan-like Lineage B (Mpro M49L)
[2] = test system: SARS-CoV-2 BA.5 Lineage D (Mpro P252L)
[3] = test system: SARS-CoV-2 Wuhan-like Lineage A (Mpro Δ23G/T45I); details: for IC50: read-out: Mean of IC50 values ± SD
[4] = test system: SARS-CoV-2 BA.5 Lineage C (Mpro S144A); details: for IC50: read-out: Mean of IC50 values ± SD
[5] = read-out: Mean of IC50 values ± SD

| Compound | Fold-change relative to wild-type [1] | IC50 [1, 5] | Resistance level (class by IC50 fold-change) [2] | Fold-change relative to wild-type [3] | IC50 [3] | Fold-change relative to wild-type [4] | IC50 [4] | Resistance level (class by IC50 fold-change) [1] | Fold-change relative to wild-type [2] | IC50 [2, 5] |
| --- | --- | --- | --- | --- | --- | --- | --- | --- | --- | --- |
| Cn1cnc(Cn2c(=O)[nH]/c(=N\c3cc4cn(C)nc4cc3Cl)n(Cc3cc(F)c(F)cc3F)c2=O)n1 [ensitrelvir] | 60.08 fold | 31.2 ± 1.06 µM | no meaningful shift | 32.06 fold | 16.7 ± 2.29 µM | 28.84 fold | 25.4 ± 8.74 µM |  |  |  |
| CC(C)(C)[C@H](NC(=O)C(F)(F)F)C(=O)N1C[C@H]2[C@@H]([C@H]1C(=O)N[C@H](C#N)C[C@@H]1CCNC1=O)C2(C)C [nirmatrelvir] |  |  |  | 0.18 fold | 1.4 ± 0.1 µM | 7.60 fold | 37 ± 0.9 µM | no meaningful shift | 3.83 fold | 18.6 ± 0.48 µM |
| remdesivir |  |  |  |  |  |  |  |  | 3.41 fold |  |
